Values after ≈ are worked out from the molar mass of the structure shown.
Key:
[1] = Clearance in rat at 2 mg/kg, iv using 10% DMAC[…] Solutol HS15/80% saline formulation; assay type: ADME, organism-based; conditions: in vivo
[2] = molecular target: T1, Calcitonin-gene-related peptide receptor, CALCRL/RAMP1 (Homo sapiens, UniProt O60894+Q16602); assay: Antagonist activity at human CGRP receptor in human SK-N-MC cells assessed as inhibition of CGRP-induced cAMP production preincubated for 30 mins followed by CGRP addition and measured after 30 mins by HTRF assay; assay type: functional, cell-based
T1 sequence (O60894 whole entry): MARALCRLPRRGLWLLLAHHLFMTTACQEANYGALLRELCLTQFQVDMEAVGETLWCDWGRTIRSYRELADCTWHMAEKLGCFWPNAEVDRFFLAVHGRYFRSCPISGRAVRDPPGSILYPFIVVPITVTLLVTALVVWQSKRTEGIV
T1 sequence (Q16602 whole entry): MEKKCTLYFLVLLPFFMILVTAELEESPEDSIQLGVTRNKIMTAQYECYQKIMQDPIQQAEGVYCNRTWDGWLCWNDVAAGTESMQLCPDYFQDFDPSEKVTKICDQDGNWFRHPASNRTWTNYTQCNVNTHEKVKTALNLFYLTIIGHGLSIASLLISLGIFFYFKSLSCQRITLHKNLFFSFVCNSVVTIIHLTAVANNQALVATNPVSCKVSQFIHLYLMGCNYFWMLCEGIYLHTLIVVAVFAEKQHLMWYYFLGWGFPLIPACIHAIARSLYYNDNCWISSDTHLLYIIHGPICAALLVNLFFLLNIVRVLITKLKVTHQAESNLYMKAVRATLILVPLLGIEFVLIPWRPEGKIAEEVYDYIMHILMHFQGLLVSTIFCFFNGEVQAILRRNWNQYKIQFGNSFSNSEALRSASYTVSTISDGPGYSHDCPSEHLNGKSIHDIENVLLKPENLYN

[3] = Thermodynamic solubility of the compound at pH 6; assay type: physicochemical; conditions: buffer, read-out: Therm_solubility
[4] = Clearance in rat at 0.5 mg/kg, iv; assay type: ADME, organism-based; conditions: in vivo
[5] = molecular target: T1, Calcitonin-gene-related peptide receptor, CALCRL/RAMP1; assay: Displacement of [3H]telcagepant from recombinant human CLR/RAMP1 expressed in Sf21 insect cell membranes measured after 60 mins by microbeta scintillation counting method
[6] = Clearance in rat at 2 mg/kg, iv using 100% acidified saline formulation; assay type: ADME, organism-based; conditions: in vivo
[7] = Thermodynamic solubility of the compound at pH 7.4; assay type: physicochemical; conditions: buffer, read-out: Therm_solubility

SMILES | clearance [1] [mL/min/kg] | pKb [2] | also measured
NCCCC[C@H](NC(=O)[C@@H](Cc1cc(Br)c(O)c(Br)c1)NC(=O)N1CCC(N2Cc3ccccc3NC2=O)CC1)C(=O)N1CCN(c2ccncc2)CC1 [OLCEGEPANT] | 38 | 11.2 | 
Cc1cc(C[C@@H](NC(=O)N2CCC(N3Cc4ccccc4NC3=O)CC2)C(=O)N[C@@H](CC2CCNCC2)C(=O)N2CCN(c3ccncc3)CC2)cc2cn[nH]c12 | 6 | 10.1 | 
O=C(N[C@@H](CC1CCNCC1)C(=O)N1CCN(c2ccncc2)CC1)[C@@H](Cc1cc(Br)c(O)c(Br)c1)NC(=O)N1CCC(n2c(=O)[nH]c3ncccc32)CC1 | 28 | 10.8 | 
Cc1cc(C[C@@H](NC(=O)N2CCC(c3cc4ccccc4[nH]c3=O)CC2)C(=O)N[C@@H](CC2CCNCC2)C(=O)N2CCN(c3ccncc3)CC2)cc2cn[nH]c12 | 31 | 9.8 | solubility thermodynamic [3]: 10 µM (≈ 7.73 µg/mL)
Cc1cc(C[C@@H](NC(=O)N2CCC(n3c(=O)[nH]c4ncccc43)CC2)C(=O)N[C@@H](CC2CCNCC2)C(=O)N2CCN(c3ccncc3)CC2)cc2cn[nH]c12 |  |  | clearance [4]: 55 mL/min/kg
Cc1cc(C[C@@H](NC(=O)N2CCC(n3c(=O)[nH]c4ncccc43)CC2)C(=O)N[C@@H](Cc2ccncc2)C(=O)N2CCN(c3ccncc3)CC2)cc2cn[nH]c12 |  | 10 | Ki [5]: 100 pM; clearance [6]: 87 mL/min/kg; solubility thermodynamic [7]: 230 µM (≈ 174 µg/mL); solubility thermodynamic [3]: 1770 µM (≈ 1340 µg/mL)
O=C(N[C@@H](CC1CCNCC1)C(=O)N1CCN(c2ccncc2)CC1)[C@@H](Cc1cc(Br)c(O)c(Br)c1)NC(=O)N1CCC(N2Cc3ccccc3NC2=O)CC1 | 21 | 11.2 | 
Cc1cc(C[C@@H](NC(=O)N2CCC(n3c(=O)[nH]c4ncccc43)CC2)C(=O)N[C@@H](CCCCN)C(=O)N2CCN(c3ccncc3)CC2)cc2cn[nH]c12 |  | 11 | Ki [5]: 25.1 pM

From ChEMBL document CHEMBL4610123, “Structure-Based Drug Discovery of N-((R)-3-(7-Methyl-1H-indazol-5-yl)-1-oxo-1-(((S)-1-oxo-3-(piperidin-4-yl)-1-(4-(pyridin-4-yl)piperazin-1-yl)propan-2-yl)amino)propan-2-yl)-2'-oxo-1',2'-dihydrospiro[piperidine-4,4'-pyrido[2,3-d][1,3]oxazine]-1-carboxamide (HTL22562): A Calcitonin Gene-Related …” (J Med Chem, 2020)
